From ChEMBL document CHEMBL4610107, “Ene-yne Hydroquinones from a Marine-derived Strain of the Fungus Pestalotiopsis neglecta with Effects on Liver X Receptor Alpha” (J Nat Prod, 2020)

Molecular target: T1, Oxysterols receptor LXR-alpha (Homo sapiens, UniProt Q13133)
T1 sequence (Q13133 whole entry): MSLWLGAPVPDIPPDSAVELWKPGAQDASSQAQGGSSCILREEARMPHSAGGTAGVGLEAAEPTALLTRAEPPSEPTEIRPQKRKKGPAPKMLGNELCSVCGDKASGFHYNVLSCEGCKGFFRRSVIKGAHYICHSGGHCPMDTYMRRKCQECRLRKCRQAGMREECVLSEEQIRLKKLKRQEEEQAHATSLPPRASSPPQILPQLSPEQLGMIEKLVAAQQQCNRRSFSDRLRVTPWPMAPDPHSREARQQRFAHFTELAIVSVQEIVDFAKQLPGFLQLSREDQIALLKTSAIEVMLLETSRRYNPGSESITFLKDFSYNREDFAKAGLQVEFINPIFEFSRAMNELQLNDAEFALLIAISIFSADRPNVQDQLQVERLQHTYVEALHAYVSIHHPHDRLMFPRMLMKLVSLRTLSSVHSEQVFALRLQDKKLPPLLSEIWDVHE
Test: Binding affinity to LXRalpha (unknown origin) by surface plasmon resonance assay; call rule not given here

Kd: Not Active
Compound: O=C(O)Cc1cccc(OCCCN(Cc2cccc(C(F)(F)F)c2Cl)CC(c2ccccc2)c2ccccc2)c1
